In PMC7644958, “Estimates of RelSeq, Mesh1, and SAHMex Hydrolysis of (p)ppGpp and (p)ppApp by Thin Layer Chromatography and NADP/NADH Coupled Assays” (Frontiers in Microbiology, 2020):

Target: T1, MESH1 (Homo sapiens, UniProt Q8N4P3)
T1 construct: gene HDDC3; pET28 derivative, expressed in E. coli BL21(lambda DE3); His-tag removed with thrombin
Assay: TLC hydrolysis assay (PEI-cellulose)
Format: biochemical
Conditions: 5 mM substrate, pH 8.0, 37°C, 250 mM NaCl, 14 mM MgCl2, 6.5 mM MnCl2

T1 sequence (Q8N4P3 whole entry): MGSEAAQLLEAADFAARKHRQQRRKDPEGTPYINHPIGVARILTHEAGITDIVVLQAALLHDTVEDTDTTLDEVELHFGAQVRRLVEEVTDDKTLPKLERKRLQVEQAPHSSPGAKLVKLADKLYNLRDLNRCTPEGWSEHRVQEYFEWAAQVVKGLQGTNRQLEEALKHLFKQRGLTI

SMILES	TLC hydrolysis assay (PEI-cellulose)
Nc1ncnc2c1ncn2[C@@H]1O[C@H](COP(=O)(O)OP(=O)(O)O)[C@@H](OP(=O)(O)OP(=O)(O)O)[C@H]1O [ppApp]	The human MESH1 hydrolase displays similar activities as shown for Drosophila Mesh1
Nc1ncnc2c1ncn2[C@@H]1O[C@H](COP(=O)(O)OP(=O)(O)OP(=O)(O)O)[C@@H](OP(=O)(O)OP(=O)(O)O)[C@H]1O [pppApp]	The human MESH1 hydrolase displays similar activities as shown for Drosophila Mesh1
